We go through one compound from article PMC11005233, “Targeting FTO induces colorectal cancer ferroptotic cell death by decreasing SLC7A11/GPX4 expression” (Journal of Experimental & Clinical Cancer Research : CR, 2024).

pKd: −log10 of the molar value.

The target of the test is fat mass and obesity-associated protein (FTO) (Homo sapiens, UniProt Q9C0B1). Briefly: SPR (Biacore T200); also thermal shift, CETSA, cell-free m6A demethylase assay. The class given is binding.
Chain of fat mass and obesity-associated protein (FTO) (Q9C0B1 whole entry): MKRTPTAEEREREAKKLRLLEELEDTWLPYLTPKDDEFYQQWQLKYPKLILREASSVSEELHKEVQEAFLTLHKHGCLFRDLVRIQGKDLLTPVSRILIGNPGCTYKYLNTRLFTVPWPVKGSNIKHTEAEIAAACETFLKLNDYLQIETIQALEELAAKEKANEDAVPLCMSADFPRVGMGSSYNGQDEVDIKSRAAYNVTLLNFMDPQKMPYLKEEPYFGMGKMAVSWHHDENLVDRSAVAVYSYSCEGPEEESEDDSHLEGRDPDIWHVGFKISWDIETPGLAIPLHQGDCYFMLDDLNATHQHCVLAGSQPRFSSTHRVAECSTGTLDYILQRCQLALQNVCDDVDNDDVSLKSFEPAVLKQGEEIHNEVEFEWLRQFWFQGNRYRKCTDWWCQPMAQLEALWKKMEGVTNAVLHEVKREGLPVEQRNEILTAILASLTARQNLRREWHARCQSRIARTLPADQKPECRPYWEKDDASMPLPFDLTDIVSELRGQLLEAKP

Regarding `C/C(=C\C(=O)OCCCCCCCCC(=O)O)C[C@@H]1OC[C@H](C[C@@H]2O[C@H]2[C@@H](C)[C@H](C)O)[C@@H](O)[C@H]1O` [Mupirocin], the pKd is 5.44.

By pKd is commonly meant the Kd on a negative log10 scale, so that one unit is a factor of ten.
